Reference: patent US20230165980A1, “METHODS FOR RADIOLABELING PSMA BINDING LIGANDS AND THEIR KITS” (Novartis AG, priority 2020, published 2023)

Experiment: Radiochemical purity: non-complexed ^68Ga species by ITLC
Assay type: physicochemical
Experimental: Radiochemical Purity: Non-Complexed ^68Ga Species by ITLC
Radical Scavenger to be used for the improvement of the radiochemical stability of ^68Ga-PSMA-11, tests were performed according to a varied approach in order to consider all the parameters that may affect the radiochemical purity of the product (activity, pH, volume, amount of Gentisic Acid).
Stability tests were performed on the freeze dried product containing the final formulation. […] Kits manufactured with the final formulation, indeed, were stored at different stability conditions (2-8° C.; 25° C. and 40° C.) and were tested at different time points for API-assay, Radiochemical Purity and Radiochemical Stability of the radiolabelled product. […]

Measured: [^68Ga] Not Complexed Species, iTLC

^68Ga-PSMA-11 [[^68Ga] Gallium PSMA-11]
0.23%: t0 h, Gentisic Acid 200 μg, IRE 17.85 mCi, 1 mL, pH 5.22
0.00%: t0 h, Gentisic Acid 0 μg, IRE 17.19 mCi, 1 mL, pH 5.24 | t0 h, Gentisic Acid 200 μg, IRE 18.07 mCi, 1 mL, pH 5.25 | t0 h, Gentisic Acid 200 μg, ITG 35.92 mCi, 4 mL, pH 4.83 | t0 h, Gentisic Acid 400 μg, IRE 17.44 mCi, 1 mL, pH 5.13 | t0 h, Gentisic Acid 400 μg, IRE 17.79 mCi, 1 mL, pH 5.11 | t0 h, Gentisic Acid 400 μg, ITG 16.9 mCi, 4 mL, pH 4.85 | t0 h, Gentisic Acid 400 μg, ITG 31.97 mCi, 4 mL, pH 4.81 | t0 h, Gentisic Acid 1000 μg, E&Z 15.65 mCi, 5 mL, pH 3.75 | t0 h, Gentisic Acid 1000 μg, IRE 17.1 mCi, 1 mL, pH 5.08 | t0 h, Gentisic Acid 1000 μg, ITG 30.9 mCi, 4 mL, pH 4.87 | t0 h, final formulation kit at Release, E&Z 15.65 mCi, 5 mL, pH 3.75 | t0 h, final formulation kit at Release, IRE 32.27 mCi, 1 mL, pH 4.95 | t0 h, final formulation kit at Release, IRE 32.95 mCi, 1 mL, pH 5.07 | t0 h, final formulation kit at Release, ITG 29.74 mCi, 4 mL, pH 4.67 | t0 h, final formulation kit at Release, ITG 30.90 mCi, 4 mL, pH 4.67 | t0 h, kit stored 3 months at 2-8° C., IRE 25.76 mCi, 1 mL, pH 5.29 | t0 h, kit stored 3 months at 25° C., IRE 24.56 mCi, 1 mL, pH 5.16 | t0 h, kit stored 3 months at 40° C., IRE 24.86 mCi, 1 mL, pH 5.23 | t0 h, kit stored 6 months at 2-8° C., IRE 19.90 mCi, 1 mL, pH 5.13 | t0 h, kit stored 6 months at 25° C., IRE 18.88 mCi, 1 mL, pH 5.09 | t0 h, kit stored 6 months at 40° C., IRE 19.34 mCi, 1 mL, pH 5.15 | t4 h, Gentisic Acid 0 μg, IRE 17.19 mCi, 1 mL, pH 5.24 | t4 h, Gentisic Acid 200 μg, IRE 17.85 mCi, 1 mL, pH 5.22 | t4 h, Gentisic Acid 200 μg, IRE 18.07 mCi, 1 mL, pH 5.25 | t4 h, Gentisic Acid 200 μg, ITG 35.92 mCi, 4 mL, pH 4.83 | t4 h, Gentisic Acid 400 μg, IRE 17.44 mCi, 1 mL, pH 5.13 | t4 h, Gentisic Acid 400 μg, IRE 17.79 mCi, 1 mL, pH 5.11 | t4 h, Gentisic Acid 400 μg, ITG 16.9 mCi, 4 mL, pH 4.85 | t4 h, Gentisic Acid 400 μg, ITG 31.97 mCi, 4 mL, pH 4.81 | t4 h, Gentisic Acid 1000 μg, E&Z 15.65 mCi, 5 mL, pH 3.75 | t4 h, Gentisic Acid 1000 μg, IRE 17.1 mCi, 1 mL, pH 5.08 | t4 h, Gentisic Acid 1000 μg, ITG 30.9 mCi, 4 mL, pH 4.87 | t4 h, final formulation kit at Release, E&Z 15.65 mCi, 5 mL, pH 3.75 | t4 h, final formulation kit at Release, E&Z 16.80 mCi, 5 mL, pH 3.75 | t4 h, final formulation kit at Release, IRE 32.27 mCi, 1 mL, pH 4.95 | t4 h, final formulation kit at Release, IRE 32.95 mCi, 1 mL, pH 5.07 | t4 h, final formulation kit at Release, ITG 29.74 mCi, 4 mL, pH 4.67 | t4 h, final formulation kit at Release, ITG 30.90 mCi, 4 mL, pH 4.67 | t4 h, kit stored 3 months at 2-8° C., IRE 25.76 mCi, 1 mL, pH 5.29 | t4 h, kit stored 3 months at 25° C., IRE 24.56 mCi, 1 mL, pH 5.16 | t4 h, kit stored 3 months at 40° C., IRE 24.86 mCi, 1 mL, pH 5.23 | t4 h, kit stored 6 months at 2-8° C., IRE 19.90 mCi, 1 mL, pH 5.13 | t4 h, kit stored 6 months at 25° C., IRE 18.88 mCi, 1 mL, pH 5.09 | t4 h, kit stored 6 months at 40° C., IRE 19.34 mCi, 1 mL, pH 5.15
0.51%: t0 h, final formulation kit at Release, E&Z 16.80 mCi, 5 mL, pH 3.75
